Measured values published in PubChem BioAssay AID1918953 (Molecular Pharmacology Branch, DTP, NCI, 2023).

Tested on: MDA-MB-231 complex spheroid viability
Experiment: Anticancer human tumor MDA-MB-231/ATCC cell line growth inhibition;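 also: drug exposure lasted 7 days starting on day 3 of spheroid growth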
Conditions: for IC50: curve of first compound; for viability, T/C: stronger effect = lower value
Summary of the method: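 Drug combinations with the LSD1 inhibitor iadademstat tested on tumor cells co-cultured as spheroids with endothelial cells and mesenchymal stem cells. Concentrations descended in half-log increments from clinical Cmax or 10 microM.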

[1] = second compound 0.1 µM, first compound 0.0316 µM
[2] = second compound 0.1 µM, first compound 0.1 µM
[3] = second compound 0.1 µM, first compound 0.316 µM
[4] = second compound 0.1 µM, first compound 1 µM
[5] = second compound 0.1 µM, first compound 3.16 µM
[6] = second compound 0.1 µM, first compound 10 µM
[7] = second compound 0.316 µM, first compound 0.0316 µM
[8] = second compound 0.316 µM, first compound 0.1 µM
[9] = second compound 0.316 µM, first compound 0.316 µM
[10] = second compound 0.316 µM, first compound 1 µM
[11] = second compound 0.316 µM, first compound 3.16 µM
[12] = second compound 0.316 µM, first compound 10 µM
[13] = second compound 1 µM, first compound 0.0316 µM
[14] = second compound 1 µM, first compound 0.1 µM
[15] = second compound 1 µM, first compound 0.316 µM
[16] = second compound 1 µM, first compound 1 µM
[17] = second compound 1 µM, first compound 3.16 µM
[18] = second compound 1 µM, first compound 10 µM
[19] = second compound 3.16 µM, first compound 0.0316 µM
[20] = second compound 3.16 µM, first compound 0.1 µM
[21] = second compound 3.16 µM, first compound 0.316 µM
[22] = second compound 3.16 µM, first compound 1 µM
[23] = second compound 3.16 µM, first compound 3.16 µM
[24] = second compound 3.16 µM, first compound 10 µM
[25] = second compound 10 µM, first compound 0.0316 µM
[26] = second compound 10 µM, first compound 0.1 µM
[27] = second compound 10 µM, first compound 0.316 µM
[28] = second compound 10 µM, first compound 1 µM
[29] = second compound 10 µM, first compound 3.16 µM
[30] = second compound 10 µM, first compound 10 µM

CC1(C)CCC(CN2CCN(c3ccc(C(=O)NS(=O)(=O)c4ccc(NCC5CCOCC5)c([N+](=O)[O-])c4)c(Oc4cnc5[nH]ccc5c4)c3)CC2)=C(c2ccc(Cl)cc2)C1 + NC1CCC(NC2CC2c2ccccc2)CC1
IC50 (second compound 0.1 µM): 6760 nM
IC50 (second compound 0.316 µM): 6450 nM
IC50 (second compound 1 µM): 5380 nM
IC50 (second compound 3.16 µM): 3860 nM
IC50 (second compound 10 µM): 735 nM
viability, T/C [1]: 100%
viability, T/C [2]: 98.6%
viability, T/C [3]: 100%
viability, T/C [4]: 102%
viability, T/C [5]: 92.6%
viability, T/C [6]: 27.8%
viability, T/C [7]: 102%
viability, T/C [8]: 103%
viability, T/C [9]: 97.3%
viability, T/C [10]: 97.3%
viability, T/C [11]: 86%
viability, T/C [12]: 27.6%
viability, T/C [13]: 98.9%
viability, T/C [14]: 95.6%
viability, T/C [15]: 99.4%
viability, T/C [16]: 95.3%
viability, T/C [17]: 72.8%
viability, T/C [18]: 23.5%
viability, T/C [19]: 81.1%
viability, T/C [20]: 77.3%
viability, T/C [21]: 74.8%
viability, T/C [22]: 75%
viability, T/C [23]: 56.2%
viability, T/C [24]: 19.9%
viability, T/C [25]: 48.6%
viability, T/C [26]: 60.2%
viability, T/C [27]: 53.8%
viability, T/C [28]: 47.7%
viability, T/C [29]: 36.2%
viability, T/C [30]: 18.6%

CC1COCCN1c1cc(C2(S(C)(=N)=O)CC2)nc(-c2ccnc3[nH]ccc23)n1 (stereo not given) + NC1CCC(NC2CC2c2ccccc2)CC1
IC50 (second compound 0.1 µM): 1180 nM
IC50 (second compound 0.316 µM): 1460 nM
IC50 (second compound 1 µM): 1530 nM
IC50 (second compound 3.16 µM): 1180 nM
IC50 (second compound 10 µM): 1010 nM
viability, T/C [1]: 103%
viability, T/C [2]: 99.2%
viability, T/C [3]: 82.5%
viability, T/C [4]: 51.1%
viability, T/C [5]: 38.1%
viability, T/C [6]: 29.4%
viability, T/C [7]: 111%
viability, T/C [8]: 109%
viability, T/C [9]: 81.6%
viability, T/C [10]: 59.2%
viability, T/C [11]: 34.9%
viability, T/C [12]: 29.3%
viability, T/C [13]: 109%
viability, T/C [14]: 100%
viability, T/C [15]: 79.5%
viability, T/C [16]: 56%
viability, T/C [17]: 40%
viability, T/C [18]: 30.3%
viability, T/C [19]: 95%
viability, T/C [20]: 87%
viability, T/C [21]: 69.7%
viability, T/C [22]: 53%
viability, T/C [23]: 37.9%
viability, T/C [24]: 33.3%
viability, T/C [25]: 72.4%
viability, T/C [26]: 68.2%
viability, T/C [27]: 59.5%
viability, T/C [28]: 48.1%
viability, T/C [29]: 42.4%
viability, T/C [30]: 32.3%
